Assays:
[1] = test system: THP1-Dual cells (Lucia luciferase under ISG54 promoter); assay: THP-1 Dual Lucia reporter gene assay; type: cell-based, human; conditions: luminescence signal induction, 20 hours at 37° C.
Experimental: THP1-Dual™ cells (InvivoGen #thpd-nfis) were derived from the human THP-1 monocyte cell line by stable integration of the Lucia luciferase gene, a secreted luciferase reporter gene, under the control of an ISG54 (interferon-stimulated gene) minimal promoter in conjunction with five interferon (IFN)-stimulated response elements. On the day of experiment, the cells were plated to a black, 384-well plate (Corning 356697) at 7500 cells/25 μl per well density in growth media (RPMI 1640, 2 mM L-glutamine, 25 mM HEPES, 10% heat-inactivated fetal bovine serum, 100 μg/mL Normocin™, 50 U/mL-50 μg/mL Pen-Strep, 10 μg/mL of blasticidin, and 100 μg/mL of Zeocin). The cell plates were dosed with 62.5 nL of the testing compounds, and then incubated at 37° C. for 20 hours. At the end of the incubation, 15 μL/well of the QUANTI-Luc™ (InvivoGen #rep-qlc1) were added, and luminescence was measured immediately using the LeadSeeker.
For the assay method described above, test compound percent luminescence signal induction, at various concentrations, was calculated relative to untreated and DMSO only treated samples. Compound concentration versus percent signal induction curves were fitted to generate EC50 values. One skilled in the art will appreciate that the values generated as EC50 values are subject to experimental variation.

Human STING = Human STING (Homo sapiens (Human), UniProt Q86WV6, H232R); assay: Human STING TR-FRET assay; type: binding; conditions: human STING residues 140-379 (H232R), 100 nM; fluorescein labeled ligand 100 nM; 60 minutes at rt
Experimental: Human STING (accession number GB:BC047779) DNA encoding residues 140-379 (H232R) was cloned into pET28 as N-terminal HIS and C-terminal Avi tagged fusion protein, and a rTEV cleavage site between HIS tag and STING. The sequence was verified before recombinant protein expression using E. coli expression system.
For expression, STING expression vector was transformed into BL21(DE3) cells. The expression was induced by adding IPTG and expressing in 16° C. for 20 hours.
For purification, STING was purified by Nickel affinity resin (Thermo Scientific #25215), followed by TEV enzyme cleavage and Superdex 200 column (GE Healthcare #28-9893-35) purification. For site directed in vitro biotinylation, purified Avi-tagged STING protein was incubated with Biotin (SUPELCO #47868), ATP (SIGMA #A-7699) and BirA enzyme, followed by further purification through a Superdex 200 column (GE Healthcare #28-9893-35). Biotinylation was confirmed by Mass Spectrometry analysis.
40 nL of test compounds in DMSO were added to wells in a white, 384 well microtitre plate (Greiner 784075). 2 uL STING assay buffer (PBS and 0.01% BSA) containing fluorescein labeled ligand (c[G(2′,5′)p-2′-Fluo-AHC-A(3′,5′)p]-Biolog C 195, 100 nM final) and Tb labeled Streptavidin (Streptavidin-Tb cryptate-CisBio 610SATLB) were added. Then 2 uL STING assay buffer containing STING protein (100 nM final) was added and the mixture was incubated at rt for 60 minutes. The plates were then read on a BMG PheraStar Plus reader (LanthaScreen module).
For the assay method described above, test compound percent inhibition, at various concentrations, was calculated relative to untreated and DMSO only treated samples. Compound concentration versus percent inhibition curves were fitted to generate IC50 values. One skilled in the art will appreciate that the values generated either as percentage inhibition at a single concentration or IC50 values are subject to experimental variation.

Human STING, sequence (Q86WV6 140-379 H232R): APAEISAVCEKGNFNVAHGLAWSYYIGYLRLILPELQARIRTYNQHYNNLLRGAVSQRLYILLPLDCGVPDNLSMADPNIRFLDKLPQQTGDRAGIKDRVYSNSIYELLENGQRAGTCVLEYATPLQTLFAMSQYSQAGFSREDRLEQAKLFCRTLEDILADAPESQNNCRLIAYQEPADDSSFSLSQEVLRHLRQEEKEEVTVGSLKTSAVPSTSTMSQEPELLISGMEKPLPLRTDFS

Question: `Nc1nc2c(ncn2[C@@H]2O[C@@H]3COP(=O)(S)O[C@H]4C[C@H](Oc5ccncn5)C[C@@H]4CNS(=O)(=O)O[C@@H]2C3)c(=O)[nH]1` (single isomer, unassigned) [Compound I-1] was tested. Which EC50 ([1]; Homo sapiens, THP1-Dual, 20 h) did it give?
Answer: Its EC50 is greater than 25 µM.

Question: What does the source list for `Nc1nc2c(ncn2[C@@H]2O[C@@H]3CNS(=O)(=O)O[C@H]4C[C@H](n5cnc6c(N)ncnc65)O[C@@H]4COP(=O)(S)O[C@@H]2C3)c(=O)[nH]1` (single isomer, unassigned) [Compound I-2a]?
Answer: EC50 [1]: > 25 µM; IC50 (Human STING): > 100 µM

Question: Which EC50 [1] does the source give for `Nc1nc2c(ncn2[C@@H]2O[C@@H]3CNS(=O)(=O)O[C@H]4C[C@H](n5cnc6c(N)ncnc65)O[C@@H]4COP(=O)(S)O[C@@H]2C3)c(=O)[nH]1` (single isomer, unassigned) [Compound I-2b] here?
Answer: The EC50 was 10 to 25 µM.

Question: And the IC50 (Human STING)?
Answer: Its IC50 is 10 to 100 µM.

Question: With `Nc1nc2c(ncn2[C@@H]2O[C@@H]3COP(=O)(S)O[C@H]4C[C@H](n5cnc6c(N)ncnc65)O[C@@H]4CNS(=O)(=O)O[C@@H]2C3)c(=O)[nH]1` (single isomer, unassigned) [Compound I-3] as the molecule, how does the EC50 ([1]; Homo sapiens, THP1-Dual, 20 h) read?
Answer: Its EC50 is less than 1 µM.

Question: And the IC50 (Human STING)?
Answer: Its IC50 is less than 1 µM.

Question: With `Nc1nc2c(ncn2[C@@H]2O[C@@H]3COP(=O)(S)O[C@H]4[C@@H](F)[C@H](n5cnc6c(N)ncnc65)O[C@@H]4CNS(=O)(=O)O[C@@H]2C3)c(=O)[nH]1` (single isomer, unassigned) [Compound I-4a] as the molecule, how does the EC50 ([1]; Homo sapiens, THP1-Dual, 20 h) read?
Answer: Its EC50 is less than 1 µM.

Question: And the IC50 (Human STING)?
Answer: Its IC50 is less than 1 µM.

Question: Which results are given for `Nc1nc2c(ncn2[C@@H]2O[C@@H]3COP(=O)(S)O[C@H]4[C@@H](F)[C@H](n5cnc6c(N)ncnc65)O[C@@H]4CNS(=O)(=O)O[C@@H]2C3)c(=O)[nH]1` (single isomer, unassigned) [Compound I-4b]?
Answer: EC50 [1]: < 1 µM; IC50 (Human STING): < 1 µM

Question: What does the source list for `Nc1nc2c(ncn2[C@@H]2O[C@@H]3CNS(=O)(=O)O[C@H]4C[C@H](n5cnc6cncnc65)C[C@@H]4COP(=O)(S)O[C@@H]2C3)c(=O)[nH]1` (single isomer, unassigned) [Compound I-6]?
Answer: EC50 ([1]; Homo sapiens, THP1-Dual, 20 h): > 25 µM; IC50 (Human STING): > 100 µM

Question: With `Nc1nc2c(ncn2[C@@H]2O[C@@H]3COP(=O)(S)O[C@H]4C[C@H](n5nnc6cncnc65)C[C@@H]4CNS(=O)(=O)O[C@@H]2C3)c(=O)[nH]1` (single isomer, unassigned) [Compound I-7] as the molecule, how does the EC50 ([1]; Homo sapiens, THP1-Dual, 20 h) read?
Answer: Its EC50 is greater than 25 µM.

Question: And the IC50 (Human STING)?
Answer: Its IC50 is 10 to 100 µM.

Question: What does the source list for `Nc1nc2c(ncn2[C@@H]2O[C@@H]3COP(=O)(S)O[C@H]4C[C@H](n5cnc6cncnc65)C[C@@H]4CNS(=O)(=O)O[C@@H]2C3)c(=O)[nH]1` (single isomer, unassigned) [Compound I-8]?
Answer: EC50 ([1]; Homo sapiens, THP1-Dual, 20 h): 1 to 10 µM; IC50 (Human STING): 1 to 10 µM

Question: `Nc1nc2c(ncn2[C@@H]2O[C@@H]3COP(=O)(S)O[C@H]4[C@@H](F)[C@H](n5cnc6cncnc65)O[C@@H]4CNS(=O)(=O)O[C@@H]2[C@@H]3F)c(=O)[nH]1` (single isomer, unassigned) [Compound I-10] was tested. Which EC50 ([1]; Homo sapiens, THP1-Dual, 20 h) did it give?
Answer: The EC50 was less than 1 µM.

Question: What about the IC50 (Human STING) of the same molecule?
Answer: The IC50 was less than 1 µM.

Question: `Nc1nc2c(ncn2[C@@H]2O[C@@H]3COP(=O)(S)O[C@H]4[C@@H](F)[C@H](n5cnc6cncnc65)O[C@@H]4CNS(=O)(=O)O[C@@H]2C3)c(=O)[nH]1` (single isomer, unassigned) [Compound I-11a] was tested. Which EC50 ([1]; Homo sapiens, THP1-Dual, 20 h) did it give?
Answer: The EC50 was less than 1 µM.

Question: What about the IC50 (Human STING) of the same molecule?
Answer: The IC50 was less than 1 µM.

Question: For `Nc1nc2c(ncn2[C@@H]2O[C@@H]3COP(=O)(S)O[C@H]4[C@@H](F)[C@H](n5cnc6cncnc65)O[C@@H]4CNS(=O)(=O)O[C@@H]2C3)c(=O)[nH]1` (single isomer, unassigned) [Compound I-11b], which EC50 [1] is on record?
Answer: The EC50 was less than 1 µM.

Question: What does the source list for `Nc1nc2c(ncn2[C@@H]2O[C@@H]3COS(=O)(=O)N[C@H]4C[C@H](n5cnc6c(N)ncnc65)O[C@@H]4COP(=O)(S)O[C@@H]2C3)c(=O)[nH]1` (single isomer, unassigned) [Compound I-12a]?
Answer: EC50 ([1]; Homo sapiens, THP1-Dual, 20 h): < 1 µM; IC50 (Human STING): < 1 µM

Question: Which EC50 ([1]; Homo sapiens, THP1-Dual, 20 h) does the source give for `Nc1nc2c(ncn2[C@@H]2O[C@@H]3COS(=O)(=O)N[C@H]4C[C@H](n5cnc6c(N)ncnc65)O[C@@H]4COP(=O)(S)O[C@@H]2C3)c(=O)[nH]1` (single isomer, unassigned) [Compound I-12b] here?
Answer: The EC50 was greater than 25 µM.

Question: And the IC50 (Human STING)?
Answer: Its IC50 is 1 to 10 µM.

Question: Which results are given for `Nc1nc2c(ncn2[C@@H]2O[C@@H]3COP(=O)(S)O[C@H]4[C@@H](F)[C@H](n5cnc6cncnc65)O[C@@H]4CNS(=O)(=O)O[C@@H]2[C@@H]3OCC(F)(F)F)c(=O)[nH]1` (single isomer, unassigned) [Compound I-13a]?
Answer: EC50 ([1]; Homo sapiens, THP1-Dual, 20 h): < 1 µM; IC50 (Human STING): < 1 µM

Question: Which EC50 [1] does the source give for `Nc1nc2c(ncn2[C@@H]2O[C@@H]3COP(=O)(S)O[C@H]4[C@@H](F)[C@H](n5cnc6cncnc65)O[C@@H]4CNS(=O)(=O)O[C@@H]2[C@@H]3OCC(F)(F)F)c(=O)[nH]1` (single isomer, unassigned) [Compound I-13b] here?
Answer: The EC50 was less than 1 µM.

Question: What about the IC50 (Human STING) of the same molecule?
Answer: Its IC50 is less than 1 µM.

Question: Which results are given for `Nc1nc2c(ncn2[C@@H]2O[C@@H]3CO[P@](=O)(S)O[C@@H]4[C@@H](CNS(=O)(=O)O[C@@H]2C3)C[C@@H](n2cnc3cncnc32)[C@@H]4F)c(=O)[nH]1` (single isomer, unassigned) [Compound I-14]?
Answer: EC50 [1]: < 1 µM; IC50 (Human STING): < 1 µM

Question: `Nc1nc2c(ncn2[C@@H]2O[C@@H]3COP(=O)(S)O[C@H]4[C@@H](F)[C@H](n5cnc6c(=O)[nH]cnc65)O[C@@H]4CNS(=O)(=O)O[C@@H]2C3)c(=O)[nH]1` (single isomer, unassigned) [Compound I-15] was tested. Which EC50 ([1]; Homo sapiens, THP1-Dual, 20 h) did it give?
Answer: Its EC50 is less than 1 µM.

Question: `Nc1nc2c(ncn2[C@@H]2O[C@@H]3COP(=O)(S)O[C@H]4[C@@H](F)[C@H](n5cnc6c(N)ncnc65)O[C@@H]4CNS(=O)(=O)O[C@@H]2[C@@H]3F)c(=O)[nH]1` (single isomer, unassigned) [Compound I-16] was tested. Which EC50 ([1]; Homo sapiens, THP1-Dual, 20 h) did it give?
Answer: Its EC50 is less than 1 µM.

Question: And the IC50 (Human STING)?
Answer: The IC50 was less than 1 µM.

Question: Which results are given for `Nc1nc2c(ncn2[C@@H]2O[C@@H]3COS(=O)(=O)N[C@H]4[C@@H](F)[C@H](n5cnc6c(N)ncnc65)O[C@@H]4COP(=O)(S)O[C@@H]2C3)c(=O)[nH]1` (single isomer, unassigned) [Compound I-17]?
Answer: EC50 ([1]; Homo sapiens, THP1-Dual, 20 h): < 1 µM; IC50 (Human STING): < 1 µM

Question: What does the source list for `Cn1cc([C@@H]2O[C@@H]3CNS(=O)(=O)O[C@@H]4C[C@@H](COP(=O)(S)O[C@H]3[C@H]2F)O[C@H]4n2cnc3c(=O)[nH]c(N)nc32)c2ncnc(N)c21` (single isomer, unassigned) [Compound I-19]?
Answer: EC50 ([1]; Homo sapiens, THP1-Dual, 20 h): > 25 µM; IC50 (Human STING): 1 to 10 µM

Question: Which results are given for `Nc1ncnc2c1ncn2[C@@H]1O[C@@H]2CNS(=O)(=O)O[C@@H]3C[C@@H](COP(=O)(S)O[C@H]2[C@H]1F)O[C@H]3n1cc(F)c2c(=O)[nH]cnc21` (single isomer, unassigned) [Compound I-20]?
Answer: EC50 ([1]; Homo sapiens, THP1-Dual, 20 h): 1 to 10 µM; IC50 (Human STING): < 1 µM

Question: How did the EC50 ([1]; Homo sapiens, THP1-Dual, 20 h) turn out when `Nc1nc2c(ncn2[C@@H]2O[C@@H]3COP(=O)(O)O[C@H]4C[C@H](n5cnc6c(N)ncnc65)O[C@@H]4CNS(=O)(=O)O[C@@H]2C3)c(=O)[nH]1` [Compound I-5, 2-amino-9-[(5S,7R,8R,12aR,14R,15aS)-14-(6-amino-9H-purin-9-yl)-2-hydroxy-2,10,10-trioxidodecahydro-5,8-methanofuro[2,3-m][1,3,6,9,10,11,2]tetraoxathiazaphosphacyclotetradecin-7-yl]-1,9-dihydro-6H-purin-6-one] was run?
Answer: Its EC50 is less than 1 µM.

Question: What about the IC50 (Human STING) of the same molecule?
Answer: Its IC50 is 1 to 10 µM.

Question: With `Nc1nc2c(ncn2[C@@H]2O[C@@H]3CNS(=O)(=O)O[C@H]4C[C@H](n5cnc6c(N)ncnc65)O[C@@H]4COP(=O)(O)O[C@@H]2C3)c(=O)[nH]1` [Compound I-9, 2-amino-9-[(5S,7R,8R,12aR,14R,15aS)-14-(6-amino-9H-purin-9-yl)-10-hydroxy-2,2,10-trioxidooctahydro-3H,12H-5,8-methanofuro[3,2-l][1,3,6,11,10,9,2]tetraoxathiazaphosphacyclotetradecin-7-yl]-1,9-dihydro-6H-purin-6-one] as the molecule, how does the EC50 ([1]; Homo sapiens, THP1-Dual, 20 h) read?
Answer: Its EC50 is greater than 25 µM.

Question: And the IC50 (Human STING)?
Answer: The IC50 was 10 to 100 µM.
